Results taken from US11554110B2, “Pemafibrate dosing regimens” (Kowa Company, Ltd., priority 2017, dated 2023).

Assays:
Assay type in all cases: in vivo, healthy adult subjects
[1] = Drug interaction study of pemafibrate with rifampicin (plasma pharmacokinetics of pemafibrate); conditions: for AUC(0-inf) / Cmax: human, plasma, po, 0.4 mg, geometric mean, oral, fasting
Experimental: A study was conducted to investigate the effect of rifampicin on the pharmacokinetics of pemafibrate in healthy adult subjects.
Subjects were orally administered on the following schedule. The administration of 0.4 mg of pemafibrate on Days 1 and 4 was carried out under fasting for at least 8 hours, and the fasting was maintained for 4 hours after the administration. • Day 1: Pemafibrate 0.4 mg alone • Day 4: A single dose of 0.4 mg of pemafibrate plus 600 mg of rifampicin • Days 5-6: Rifampicin 600 mg alone [Measurement]
(§1) Plasma concentration of pemafibrate was measured on blood samples from patients taken prior to and at 0.25, 0.5, 1, 1.5, 2, 3, 4, 6, 8, 10, 12, 14, 16, 24, 36, 48, 72 hours after administration of the drug on Days 1 and 4.
For estimates of the Cmax of pemafibrate and the area under the concentration-time curves (AUC0-inf) up to infinity hours, the geometric mean values and the ratios of the geometric mean values for concomitant administration to those for the single administration are shown in Table 1.

[2] = Drug interaction study of pemafibrate with clopidogrel (plasma pharmacokinetics of pemafibrate); conditions: for AUC(0-inf) / Cmax: human, plasma, po; for AUC0-inf ratio (concomitant use/single use) / Cmax ratio (concomitant use/single use): ratio of geometric means
Experimental: A study was conducted to investigate the effect of clopidogrel on the pharmacokinetics of pemafibrate in healthy adult subjects.
Subjects were orally administered on the following schedule. Pemafibrate administration on Days 1, 4, and 7 was carried out under fasting for at least 8 hours and maintained fasting for 4 hours after administration. • Day 1: Pemafibrate 0.4 mg alone • Day 4: A single dose of 0.4 mg of pemafibrate plus 391.5 mg of clopidogrel sulfate (equivalent to 300 mg of clopidogrel) • Day 5 to 6: Clopidogrel Sulfate 91.875 mg (equivalent to Clopidogrel 75 mg) alone • Day 7: A single dose of 0.4 mg of pemafibrate and 91.875 mg of clopidogrel sulfate (equivalent to 75 mg of clopidogrel) • Day 8 to 9: Clopidogrel Sulfate 91.875 mg (equivalent to Clopidogrel 75 mg) alone Measurement
Plasma concentration of pemafibrate was measured on blood samples from patients taken prior to and at 0.25, 0.5, 1, 1.5, 2, 3, 4, 6, 8, 10, 12, 14, 16, 24, 36, 48, 72 hours after administration of the drug on Days 1, 4, and 7.
For estimates of the Cmax of pemafibrate and the area under the concentration-time curves (AUC0-inf) up to infinity hours, the geometric mean values and the ratios of the geometric mean values of the single-dose concomitant administration (Day 4) to those for the single administration (Day 1) are shown in Table 4.
For the Cmax and AUC0-inf of pemafibrate, the geometric mean values and the ratios of the geometric mean values for concomitant administration after repeated administration of clopidogrel (day 7) to those for the single administration (day 1) are shown in Table 5.

[3] = Drug interaction study of pemafibrate with clarithromycin (plasma pharmacokinetics of pemafibrate); conditions: for AUC(0-inf) / Cmax: human, plasma, po, 0.4 mg, geometric mean
Experimental: A study was conducted to investigate the effect of clarithromycin on the pharmacokinetics of pemafibrate in healthy adult subjects.
20 healthy adult subjects
Subjects were orally administered on the following schedule. The administration of 0.4 mg of pemafibrate on Days 1 and 9 was carried out under fasting for at least 8 hours, and the fasting was maintained for 4 hours after the administration. • Day 1: Pemafibrate 0.4 mg alone • Day 4 to 8: Clarithromycin 500 mg twice per day (1000 mg/day) • Day 9: Pemafibrate 0.4 mg single dose and Clarithromycin 500 mg twice per day (1000 mg/day) • Day 10 to 11: Clarithromycin 500 mg twice per day (1000 mg/day) Measurement
Plasma concentration of pemafibrate was measured on blood samples from patients collected prior to and at 0.25, 0.5, 1, 1.5, 2, 3, 4, 6, 8, 10, 12, 14, 16, 24, 36, 48, 72 hours after administration of 0.4 mg of pemafibrate on Days 1 and 9.
For estimates of the Cmax of pemafibrate and the area under the concentration-time curves (AUC0-inf) up to infinity hours, the geometric mean values and the ratios of the geometric mean values for concomitant administration to those for the single administration are shown in Table 2.

[4] = Drug interaction study of pemafibrate with cyclosporine (plasma pharmacokinetics of pemafibrate); conditions: for AUC(0-inf) / Cmax: human, plasma, po, 0.4 mg, geometric mean, oral, fasting
Experimental: A study was conducted to investigate the effect of cyclosporine on the pharmacokinetics of pemafibrate in healthy adult subjects.
Subjects were orally administered on the following schedule. Drug administration was carried out under fasting for at least 8 hours, and fasting was maintained for 4 hours after administration. • Day 1: Pemafibrate 0.4 mg alone • Day 4: Combined single dose of 0.4 mg of pemafibrate and 600 mg of cyclosporine (Neoral® or its equivalent) [Measurement]
as §1
For estimates of the Cmax of pemafibrate and the area under the concentration-time curves (AUC0-inf) up to infinity hours, the geometric mean values and the ratios of the geometric mean values for concomitant administration to those for the single administration are shown in Table 3.

[5] = Day 1, pemafibrate 0.4 mg alone, read-out: AUC0-inf, single administration
[6] = Day 1, pemafibrate 0.4 mg alone, read-out: Cmax, single administration
[7] = ratio of geometric means, with rifampicin 600 mg vs pemafibrate alone
[8] = Day 4 (clopidogrel 300 mg single dose) vs Day 1
[9] = Day 7 (after repeated clopidogrel, 75 mg) vs Day 1
[10] = ratio of geometric means, with clarithromycin 1000 mg/day vs pemafibrate alone
[11] = ratio of geometric means, with cyclosporine 600 mg vs pemafibrate alone

Structure (SMILES): CC[C@@H](Oc1cccc(CN(CCCOc2ccc(OC)cc2)c2nc3ccccc3o2)c1)C(=O)O [pemafibrate, (2R)-2-[3-({1,3-benzoxazol-2-yl[3-(4-methoxyphenoxy)propyl]amino}methyl)phenoxy]butanoic acid]
- plasma concentration of pemafibrate, concomitant vs alone ([1]; concomitant administration with rifampicin compared with pemafibrate alone): increase in the plasma concentration of pemafibrate
- AUC(0-inf) [1, 5]: 20.1 ng·h/mL
- Cmax [1, 6]: 5.67 ng/mL
- AUC(0-inf) ([1]; Day 4, single dose pemafibrate 0.4 mg plus rifampicin 600 mg, read-out: AUC0-inf, concomitant administration): 219 ng·h/mL
- Cmax ([1]; Day 4, single dose pemafibrate 0.4 mg plus rifampicin 600 mg, read-out: Cmax, concomitant administration): 53.5 ng/mL
- AUC0-inf ratio (concomitant use/single use) [1, 7]: 10.9009
- Cmax ratio (concomitant use/single use) [1, 7]: 9.436
- plasma concentration of pemafibrate, concomitant vs alone ([2]; concomitant administration after repeated administration of clopidogrel (day 7) compared with pemafibrate alone (day 1)): increase in the plasma concentration of pemafibrate
- AUC0-inf, concomitant administration ([2]; geometric mean, Day 7, pemafibrate 0.4 mg plus clopidogrel sulfate 91.875 mg (equivalent to 75 mg of clopidogrel) after repeated administration of clopidogrel): 33.5611 ng·h/mL
- AUC(0-inf) ([2]; 0.4 mg, geometric mean, Day 1, pemafibrate 0.4 mg alone, oral, fasting, read-out: AUC0-inf, single administration): 16.1 ng·h/mL
- Cmax ([2]; 0.4 mg, geometric mean, Day 1, pemafibrate 0.4 mg alone, oral, fasting, read-out: Cmax, single administration): 4.77 ng/mL
- Cmax ([2]; 0.4 mg, geometric mean, Day 4, single dose pemafibrate 0.4 mg plus clopidogrel sulfate 391.5 mg (equivalent to 300 mg of clopidogrel), read-out: Cmax, concomitant administration): 7.08 ng/mL
- AUC(0-inf) ([2]; geometric mean, Day 4, single dose pemafibrate 0.4 mg plus clopidogrel sulfate 391.5 mg (equivalent to 300 mg of clopidogrel), read-out: AUC0-inf, concomitant administration): 38.1 ng·h/mL
- Cmax ([2]; geometric mean, Day 7, pemafibrate 0.4 mg plus clopidogrel sulfate 91.875 mg (equivalent to 75 mg of clopidogrel) after repeated administration of clopidogrel, read-out: Cmax, concomitant administration): 6.39 ng/mL
- AUC0-inf ratio (concomitant use/single use) [2, 8]: 2.3728
- Cmax ratio (concomitant use/single use) [2, 8]: 1.4855
- AUC0-inf ratio (concomitant use/single use) [2, 9]: 2.0876
- Cmax ratio (concomitant use/single use) [2, 9]: 1.3415
- plasma concentration of pemafibrate, concomitant vs alone ([2]; single-dose concomitant administration with clopidogrel (Day 4) compared with pemafibrate alone (Day 1)): increase in the plasma concentration of pemafibrate
- plasma concentration of pemafibrate, concomitant vs alone ([3]; concomitant administration with clarithromycin compared with pemafibrate alone): increase in the plasma concentration of pemafibrate
- AUC(0-inf) ([3]; Day 1, pemafibrate 0.4 mg alone, oral, fasting, read-out: AUC0-inf, single administration): 17 ng·h/mL
- Cmax ([3]; Day 1, pemafibrate 0.4 mg alone, oral, fasting, read-out: Cmax, single administration): 4.67 ng/mL
- AUC(0-inf) ([3]; Day 9, pemafibrate 0.4 mg single dose with clarithromycin 500 mg twice per day (given from Day 4), read-out: AUC0-inf, concomitant administration): 35.7 ng·h/mL
- Cmax ([3]; Day 9, pemafibrate 0.4 mg single dose with clarithromycin 500 mg twice per day (given from Day 4), read-out: Cmax, concomitant administration): 11.3 ng/mL
- AUC0-inf ratio (concomitant use/single use) [3, 10]: 2.0975
- Cmax ratio (concomitant use/single use) [3, 10]: 2.4246
- plasma concentration of pemafibrate, concomitant vs alone ([4]; concomitant administration with cyclosporine compared with pemafibrate alone): increase in the plasma concentration of pemafibrate
- AUC(0-inf) [4, 5]: 13.4 ng·h/mL
- Cmax [4, 6]: 4.59 ng/mL
- AUC(0-inf) ([4]; Day 4, combined single dose pemafibrate 0.4 mg and cyclosporine 600 mg, read-out: AUC0-inf, concomitant administration): 187 ng·h/mL
- Cmax ([4]; Day 4, combined single dose pemafibrate 0.4 mg and cyclosporine 600 mg, read-out: Cmax, concomitant administration): 41.2 ng/mL
- AUC0-inf ratio (concomitant use/single use) [4, 11]: 13.9947
- Cmax ratio (concomitant use/single use) [4, 11]: 8.9644
